Assay [1] has as its target T1, α-aminoadipate reductase (AAR) (Candida albicans, UniProt Q12572).
T1 construct: The crude extracts were dialyzed and used as the enzyme source for the AAR activity; endogenous in cells; host or cells: C. albicans cells, dialyzed crude extract
T1 sequence (Q12572 1-1391): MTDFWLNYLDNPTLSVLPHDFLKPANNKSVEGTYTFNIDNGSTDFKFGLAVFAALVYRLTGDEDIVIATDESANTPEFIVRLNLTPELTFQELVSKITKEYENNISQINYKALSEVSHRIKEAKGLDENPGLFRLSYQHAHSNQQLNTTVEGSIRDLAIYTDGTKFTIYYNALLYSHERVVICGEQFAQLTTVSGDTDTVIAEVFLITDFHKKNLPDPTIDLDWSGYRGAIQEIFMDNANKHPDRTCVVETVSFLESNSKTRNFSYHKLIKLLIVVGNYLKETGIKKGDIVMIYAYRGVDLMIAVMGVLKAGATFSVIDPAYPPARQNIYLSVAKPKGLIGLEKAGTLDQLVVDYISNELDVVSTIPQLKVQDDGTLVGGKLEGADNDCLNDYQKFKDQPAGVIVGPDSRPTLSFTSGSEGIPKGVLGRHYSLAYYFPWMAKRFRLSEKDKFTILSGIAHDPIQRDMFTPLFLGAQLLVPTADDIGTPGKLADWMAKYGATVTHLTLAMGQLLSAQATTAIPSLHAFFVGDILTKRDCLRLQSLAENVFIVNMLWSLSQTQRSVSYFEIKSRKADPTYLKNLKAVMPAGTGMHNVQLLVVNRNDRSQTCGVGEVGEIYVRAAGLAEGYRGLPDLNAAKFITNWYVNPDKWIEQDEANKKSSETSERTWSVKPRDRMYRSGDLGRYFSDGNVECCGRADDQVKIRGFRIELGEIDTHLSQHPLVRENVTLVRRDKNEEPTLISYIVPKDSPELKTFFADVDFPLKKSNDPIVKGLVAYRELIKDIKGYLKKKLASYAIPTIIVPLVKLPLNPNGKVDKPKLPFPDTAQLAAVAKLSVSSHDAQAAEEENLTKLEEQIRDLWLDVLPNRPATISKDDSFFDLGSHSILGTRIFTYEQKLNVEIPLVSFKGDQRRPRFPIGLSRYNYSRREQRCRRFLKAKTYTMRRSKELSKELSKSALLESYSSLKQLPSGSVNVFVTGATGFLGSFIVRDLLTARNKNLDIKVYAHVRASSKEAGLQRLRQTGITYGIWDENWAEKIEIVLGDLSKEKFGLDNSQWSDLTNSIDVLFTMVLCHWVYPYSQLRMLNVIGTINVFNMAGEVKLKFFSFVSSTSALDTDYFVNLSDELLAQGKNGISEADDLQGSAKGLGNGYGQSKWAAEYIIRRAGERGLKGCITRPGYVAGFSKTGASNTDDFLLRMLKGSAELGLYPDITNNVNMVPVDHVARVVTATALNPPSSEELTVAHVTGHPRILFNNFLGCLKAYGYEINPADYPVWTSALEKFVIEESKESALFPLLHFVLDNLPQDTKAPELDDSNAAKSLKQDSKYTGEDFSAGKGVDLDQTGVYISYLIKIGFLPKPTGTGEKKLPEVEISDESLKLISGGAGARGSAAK
Kind of assay: Feedback inhibition of aminoadipate reductase activity in dialyzed cell extract. The format is biochemical. Conditions: for AAR activity: cell extract alone 19.76. Here is the method: (§1) Cells were grown in appropriate media at 30° C. with constant shaking and harvested during the late logarithmic phase. Crude enzyme preparations were obtained by disruption of the cells in a Braun homogenizer flask in the case of S. cerevisiae (Sinha and Bhattacharjee 1971), and by vortexing with glass beads for 30 s with 30 s intervals at 4° C. for a total of 5 mins in case of C. albicans. The crude extracts were dialyzed and used as the enzyme source for the AAR activity. The amount of protein in the dialyzed extracts was determined according to the procedure of Bradford (1976).
The AAR activity was assayed using previously described procedure (Sagisaka and Shimura 1962). The reaction mixture consisted of DL aminoadipate, 12.5 mM; ATP, 15 mM; MgCl2, 10 mM; reduced glutathione, 1 mM; α-NADPH (tetra sodium salt), 0.625 mM; and Tris HCl, 250 mM (pH8.0). Dialysed cell extract was added to a final concentration of 0.02-1.0 mg of dialyzed protein. Tubes lacking aminoadipate were used as controls. The reaction mixtures were incubated at 30 ° C. for 1 h and terminated by the addition of Iml of 2% p-dimethylaminobenzaldehyde (PDAB) in 2-methoxyethanol. Activity of AAR was reported in units of A460 h-^1 mg protein-^1.
Feedback inhibition by the end product, lysine, was determined by addition of various concentrations of lysine to the reaction mixture. 50 mM lysine inhibited the AAR activity by 70%. However, when a lysine analog, [S-(2-amino ethyl)] L-Cysteine L-thialysine), was used, 1 mM thialysine was sufficient to abolish 92% of the enzyme activity (Table 5).

The subject of assay [2] is AAR of C. albicans WT 9517 cells. Kind of assay: AAR activity of cells grown in different media. It counts as cell-based. The procedure: Yeast strains were maintained on yeast extract-peptone-dextrose medium (YEPD). Minimal medium (MM) consisted of 1% dextrose and 0.67% yeast nitrogen base without amino acid. Minimal medium was supplemented with L-lysine (50 μg/ml) where appropriate. Escherichia coli strains were maintained on Luria Bertani medium. Plasmid containing strains were maintained in L-agar containing ampicillin at a concentration of 50 μg/ml.
as §1
The AAR activity was assayed using previously described procedure (Sagisaka and Shimura 1962). […]
The AAR activity of C. albicans WT 9517 cells was determined for cells grown in minimal medium, minimal medium supplemented with lysine, and YEPD. […]

The test system of the next assay is LYS2 mRNA. The assay is described as follows: Northern blot analysis of LYS2 mRNA. It counts as cell-based. Conditions: C. albicans WT9517 grown in minimal medium supplemented with lysine. Here is the method: Total RNA was isolated from C. albicans WA95 17 cells grown in different media according to the procedure described by Sherman et al. (1986). Total RNA (20 μg/lane) was fractionated by electrophoresis on a 1% agarose gel, transferred to nylon membranes, and hybridized to LYS2 gene and 18 s rDNA radio-labelled probes. The 2.0 kb EcoRI PstI fragment of the LYS2 gene was labelled with [a^32P]DTP by a random primer kit (Gibco BRL) and used as a probe. A plasmid carrying the 18S rDNA was also labeled similarly and used as ribosomal probe. Hybridization was carried out at 60° C. in 0.5 M Sodium phosphate (pH 7.2), 7% SDS, 1% BSA, 1 mM EDTA (pH 8.0). The membrane was washed in 2×SSC and 0.1% SDS at room temperature for 30 min and followed by a wash in 0.5×SSC and 0.1% SDS at 60° C. for 30 min. The membrane was stripped by boiling in 0.1×SSC and 0.1% SDS for 30 min followed by washing with water at 65° C. for 30 min and then reprobed.
To determine if the LYS2 gene expression is controlled at the transcriptional level by lysine and by other amino acids in rich medium, total RNA was extracted from C. albicans WT9517 grown in minimal medium, minimal medium supplemented with lysine, and in YEPD medium. The blot was quantitated using a beta scanner and the AMBIS Image analysis software. […] The LYS2 mRNA level in YEPD grown cells could not be detected. […]

The mark [3] stands for this setting: cell extract + 1 mM inhibitor in reaction mixture.
Where [4] appears, read: cell extract + 10 mM inhibitor in reaction mixture.

This note sets out measurements from US6455248B1, “Reagents and kits for detecting fungal pathogens in a biological sample” (Miami University, priority 1996, dated 2002).

The term inhibition denotes the share of the control response that was lost under treatment.

For `NCCSC[C@H](N)C(=O)O` [thialysine, [S-(2-amino ethyl)] L-Cysteine], in assay [1] (1 mM in reaction mixture, read-out: inhibition of AAR enzyme activity), the inhibition at 1000 µM turned out to be 92%. Moreover, the AAR activity turned out to be 3.58 A460 h^−1 mg protein^−1 in assay [1] (setting [3]) and 1.78 A460 h^−1 mg protein^−1 in assay [1] (setting [4]).
Take `NCCCC[C@H](N)C(=O)O` [lysine, L-lysine]: the “repression of AAR activity compared to cells grown in minimal medium” value in assay [2] (cells grown in minimal medium supplemented with lysine) worked out at 40%. Also, the AAR activity was 11.87 A460 h^−1 mg protein^−1 in assay [2] (cells grown in minimal medium supplemented with lysine (L-lysine 50 μg/ml), minimal medium alone 19.79); 19.34 A460 h^−1 mg protein^−1 in assay [1] (setting [3]); 9.68 A460 h^−1 mg protein^−1 in assay [1] (setting [4]); 5.92 A460 h^−1 mg protein^−1 in assay [1] (cell extract + 50 mM inhibitor in reaction mixture). Further, the inhibition at 50000 µM in assay [1] (read-out: inhibition of AAR activity) stood at 70%. For the same molecule, in the assay on LYS2 mRNA, the “level of LYS2 mRNA compared to cells grown in minimal medium” value was “significantly lower”.
